ChEMBL document CHEMBL1909046, “DrugMatrix in vitro pharmacology data”
pIC50, pKi: −log10 of the molar value.

Legend:
[1] = target: Aldo-keto reductase family 1 member B1 (Rattus norvegicus, UniProt P07943); type: tissue-based, Lens of camera-type eye;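 note: inhibition of aldose reductase enzyme activity, measured with DL-glyceraldehyde as the substrate; in other assays of this panel Not Active means under 50% inhibition at 10 µM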
[2] = DRUGMATRIX: Atrial Natriuretic Factor (ANF) radioligand binding (ligand: [125I] ANF (rat)); type: cell membranes, Cavia porcellus, Dunkin-Hartley, Adrenal gland, Membrane; details: Not Active = under 50% inhibition at 10 µM
[3] = DRUGMATRIX: Serotonin (5-Hydroxytryptamine) 5-HT3 radioligand binding (ligand: [3H] GR-65630); type: cell membranes, Membrane; details: hek293; Not Active = under 50% inhibition at 10 µM
[4] = target: Sigma non-opioid intracellular receptor 1 (Homo sapiens, UniProt Q99720); assay: DRUGMATRIX: Sigma1 radioligand binding (ligand: [3H] Haloperidol); type: cell membranes, Jurkat, Membrane; details: Not Active = under 50% inhibition at 10 µM; for IC50 / Ki: jurkat
[5] = target: C-C chemokine receptor type 5 (Homo sapiens, UniProt P51681); type: cell membranes, Membrane; details: hek293; note: in other assays of this panel Not Active means under 50% inhibition at 10 µM
[6] = target: T1, Neuropeptide Y receptor type 2 (Homo sapiens, UniProt P49146); type: cell membranes, KAN-TS, Membrane; details: kan-ts; note: in other assays of this panel Not Active means under 50% inhibition at 10 µM
T1 sequence (P49146 whole entry): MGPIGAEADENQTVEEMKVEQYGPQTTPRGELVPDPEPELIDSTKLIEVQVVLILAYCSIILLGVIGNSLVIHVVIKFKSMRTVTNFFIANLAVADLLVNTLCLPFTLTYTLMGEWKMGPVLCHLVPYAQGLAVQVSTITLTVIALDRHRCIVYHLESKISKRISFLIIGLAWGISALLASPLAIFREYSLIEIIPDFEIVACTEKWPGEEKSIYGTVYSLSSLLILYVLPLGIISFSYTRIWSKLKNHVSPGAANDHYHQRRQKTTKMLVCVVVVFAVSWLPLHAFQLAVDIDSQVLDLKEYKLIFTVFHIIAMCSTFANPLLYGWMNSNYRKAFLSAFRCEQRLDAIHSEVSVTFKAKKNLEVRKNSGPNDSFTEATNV

[7] = target: Mu-type opioid receptor (Homo sapiens, UniProt P35372); assay: DRUGMATRIX: Opiate mu (OP3, MOP) radioligand binding (ligand: [3H] Diprenorphine); type: cell membranes, CHO-K1, Membrane; details: cho-k1; Not Active = under 50% inhibition at 10 µM
Sequence of Mu-type opioid receptor (P35372 whole entry): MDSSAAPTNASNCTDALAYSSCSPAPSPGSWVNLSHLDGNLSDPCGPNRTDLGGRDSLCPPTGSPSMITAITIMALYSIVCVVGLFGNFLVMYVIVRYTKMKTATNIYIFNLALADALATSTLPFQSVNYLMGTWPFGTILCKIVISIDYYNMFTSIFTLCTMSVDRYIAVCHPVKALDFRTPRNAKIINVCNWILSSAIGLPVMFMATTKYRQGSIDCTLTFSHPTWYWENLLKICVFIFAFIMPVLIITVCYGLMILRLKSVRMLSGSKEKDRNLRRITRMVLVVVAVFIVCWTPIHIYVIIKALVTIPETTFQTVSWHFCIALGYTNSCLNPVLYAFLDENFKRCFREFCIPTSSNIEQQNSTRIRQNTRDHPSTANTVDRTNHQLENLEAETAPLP

Sequence of C-C chemokine receptor type 5 (P51681 whole entry): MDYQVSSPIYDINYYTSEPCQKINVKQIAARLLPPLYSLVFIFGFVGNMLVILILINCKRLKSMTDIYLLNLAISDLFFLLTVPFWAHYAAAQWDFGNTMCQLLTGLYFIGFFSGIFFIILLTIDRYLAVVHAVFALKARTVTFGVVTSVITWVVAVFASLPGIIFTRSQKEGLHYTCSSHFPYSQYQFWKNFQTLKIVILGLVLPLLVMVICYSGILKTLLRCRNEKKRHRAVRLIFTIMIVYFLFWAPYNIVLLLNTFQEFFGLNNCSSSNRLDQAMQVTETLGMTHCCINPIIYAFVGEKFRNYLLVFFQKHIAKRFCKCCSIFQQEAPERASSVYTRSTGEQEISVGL
Sequence of Sigma non-opioid intracellular receptor 1 (Q99720 whole entry): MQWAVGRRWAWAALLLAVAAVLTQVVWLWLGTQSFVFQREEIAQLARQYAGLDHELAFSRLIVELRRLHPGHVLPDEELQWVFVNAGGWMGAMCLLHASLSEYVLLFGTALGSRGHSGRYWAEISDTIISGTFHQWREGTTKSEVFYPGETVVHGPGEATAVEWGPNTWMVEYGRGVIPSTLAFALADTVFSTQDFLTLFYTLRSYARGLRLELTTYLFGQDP

O=C(c1ccccc1C(F)(F)F)N1CCC(Cc2ccccc2)CC1
Not Active: IC50 [1] | IC50 [2] | Ki [2] | IC50 [3] | Ki [3] | IC50 [4] | IC50 [5] | IC50 [6] | IC50 [7]

O=C/C=C/c1ccccc1
Not Active: IC50 [1] | IC50 [2] | Ki [2] | IC50 [3] | Ki [3] | IC50 [4] | IC50 [5] | IC50 [6]

Nc1ccc2c3c(cccc13)C(=O)NC2=O
Not Active: IC50 [1] | IC50 [2] | Ki [2] | IC50 [3] | Ki [3] | IC50 [4] | IC50 [5] | IC50 [6] | IC50 [7]

COc1ccc(C(=O)N2CCCC2=O)cc1
Not Active: IC50 [1] | IC50 [2] | Ki [2] | IC50 [3] | Ki [3] | IC50 [4] | IC50 [5] | IC50 [6] | IC50 [7]

O=c1cnn([C@@H]2O[C@H](CO)[C@@H](O)[C@H]2O)c(=O)[nH]1 [6-AZAURIDINE]
Not Active: IC50 [1] | IC50 [2] | Ki [2] | IC50 [3] | Ki [3] | IC50 [4] | IC50 [5] | IC50 [6] | IC50 [7]

CC[C@H](C)[C@H]1O[C@]2(C=C[C@@H]1C)C[C@@H]1C[C@@H](C/C=C(\C)[C@@H](O[C@H]3C[C@H](OC)[C@@H](O[C@H]4C[C@H](OC)[C@@H](O)[C@H](C)O4)[C@H](C)O3)[C@@H](C)/C=C/C=C3\CO[C@@H]4[C@H](O)C(C)=C[C@@H](C(=O)O1)[C@]34O)O2.CO[C@H]1C[C@H](O[C@H]2[C@H](C)O[C@@H](O[C@@H]3/C(C)=C/C[C@@H]4C[C@@H](C[C@]5(C=C[C@H](C)[C@@H](C(C)C)O5)O4)OC(=O)[C@@H]4C=C(C)[C@@H](O)[C@H]5OC/C(=C\C=C\[C@@H]3C)[C@]54O)C[C@@H]2OC)O[C@@H](C)[C@@H]1O [ABAMECTIN]
Not Active: IC50 [1] | IC50 [2] | Ki [2] | IC50 [3] | Ki [3] | IC50 [4] | IC50 [5] | IC50 [6] | IC50 [7]

NCCCC(O)(P(=O)(O)O)P(=O)(O)O [ALENDRONIC ACID]
Not Active: IC50 [1] | IC50 [2] | Ki [2] | IC50 [3] | Ki [3] | IC50 [4] | IC50 [5] | IC50 [6] | IC50 [7]

Cc1nnc2n1-c1ccc(Cl)cc1C(c1ccccc1)=NC2 [ALPRAZOLAM]
Not Active: IC50 [1] | IC50 [2] | Ki [2] | IC50 [3] | Ki [3] | IC50 [4] | IC50 [5] | IC50 [6]

Cn1c(=O)c2[nH]cnc2n(C)c1=O.Cn1c(=O)c2[nH]cnc2n(C)c1=O.NCCN [AMINOPHYLLINE]
Not Active: IC50 [1] | IC50 [2] | Ki [2] | IC50 [3] | Ki [3] | IC50 [4] | IC50 [5] | IC50 [6] | IC50 [7]

CCC1(CCC(C)C)C(=O)NC(=O)NC1=O [AMOBARBITAL]
Not Active: IC50 [1] | IC50 [2] | Ki [2] | IC50 [3] | Ki [3] | IC50 [4] | IC50 [5] | IC50 [6] | IC50 [7]

CC1(C)S[C@@H]2[C@H](NC(=O)[C@H](N)c3ccccc3)C(=O)N2[C@H]1C(=O)O [AMPICILLIN]
Not Active: IC50 [1] | IC50 [2] | Ki [2] | IC50 [3] | Ki [3] | IC50 [4] | IC50 [5] | IC50 [6] | IC50 [7]

COc1ccc(C2C(=O)c3ccccc3C2=O)cc1 [ANISINDIONE]
Not Active: IC50 [1] | IC50 [2] | Ki [2] | IC50 [3] | Ki [3] | IC50 [4] | IC50 [5] | IC50 [6] | IC50 [7]

O=C1O[C@H]([C@@H](O)CO)C(O)=C1O [ASCORBIC ACID]
Not Active: IC50 [1] | IC50 [2] | Ki [2] | IC50 [3] | Ki [3] | IC50 [4] | IC50 [5] | IC50 [6] | IC50 [7]

CN1[C@@H]2CC[C@H]1C[C@@H](OC(=O)C(CO)c1ccccc1)C2 (stereo not given in full) [ATROPINE]
Not Active: IC50 [1] | IC50 [2] | Ki [2] | IC50 [3] | Ki [3] | IC50 [4] | IC50 [5] | IC50 [6] | IC50 [7]

CC(C(=O)O)c1ccc2oc(-c3ccc(Cl)cc3)nc2c1 (stereo not given) [BENOXAPROFEN]
Not Active: IC50 [1] | IC50 [2] | Ki [2] | IC50 [3] | Ki [3] | IC50 [4] | IC50 [5] | IC50 [6] | IC50 [7]

COc1ccc2cc3[n+](cc2c1OC)CCc1cc2c(cc1-3)OCO2.[Cl-] [BERBERINE CHLORIDE]
6.27: pKi ([4]; read-out: Ki)
Not Active: IC50 [1] | IC50 [2] | Ki [2] | IC50 [5] | IC50 [6] | IC50 [7]
5.89: pIC50 ([4]; read-out: IC50)

O=C(O)CCNC(=O)c1ccccc1 [BETAMIPRON]
Not Active: IC50 [1] | IC50 [2] | Ki [2] | IC50 [3] | Ki [3] | IC50 [4] | IC50 [5] | IC50 [6] | IC50 [7]

CC(=O)Oc1ccc(C(c2ccc(OC(C)=O)cc2)c2ccccn2)cc1 [BISACODYL]
Not Active: IC50 [1] | IC50 [2] | Ki [2] | IC50 [3] | Ki [3] | IC50 [4] | IC50 [5] | IC50 [6] | IC50 [7]

C[C@@H](CO)NC(=O)[C@@H]1C=C2c3cccc4[nH]cc(c34)C[C@H]2N(C)C1 [ERGONOVINE]
Not Active: IC50 [1] | IC50 [2] | Ki [2] | IC50 [3] | Ki [3] | IC50 [4] | IC50 [5] | IC50 [6]

C[n+]1ccc(-c2cc[n+](C)cc2)cc1.[Cl-].[Cl-] [PARAQUAT DICHLORIDE]
Not Active: IC50 [1] | IC50 [2] | Ki [2] | IC50 [3] | Ki [3] | IC50 [4] | IC50 [5] | IC50 [6]

COc1cc2nc(N3CCN(C(=O)c4ccco4)CC3)nc(N)c2cc1OC [PRAZOSIN]
Not Active: IC50 [1] | IC50 [2] | Ki [2] | IC50 [4] | IC50 [5] | IC50 [6] | IC50 [7]

C[C@@H]1O[C@@H](O[C@@H]2C=C3CC[C@@H]4[C@H](CC[C@]5(C)[C@@H](c6ccc(=O)oc6)CC[C@]45O)[C@@]3(C)CC2)[C@H](O)[C@H](O)[C@H]1O [PROSCILLARIDIN]
Not Active: IC50 [1] | IC50 [2] | Ki [2] | IC50 [3] | Ki [3] | IC50 [4] | IC50 [5] | IC50 [6]

AURANOFIN
Not Active: IC50 [1] | Ki [1] | IC50 [2] | Ki [2] | IC50 [3] | Ki [3] | IC50 [4] | Ki [4] | IC50 [5] | Ki [5] | IC50 [6] | Ki [6]

GADOPENTETATE DIMEGLUMINE
Not Active: IC50 [1] | Ki [1] | IC50 [2] | Ki [2] | IC50 [3] | Ki [3] | IC50 [4] | Ki [4] | IC50 [5] | Ki [5] | IC50 [6] | Ki [6]

GENTAMICIN
Not Active: IC50 [1] | Ki [1] | IC50 [2] | Ki [2] | IC50 [3] | Ki [3] | IC50 [4] | Ki [4] | IC50 [5] | Ki [5] | IC50 [6] | Ki [6]

GRAMICIDIN
Not Active: IC50 [1] | Ki [1] | IC50 [2] | Ki [2] | IC50 [3] | Ki [3] | IC50 [4] | Ki [4] | IC50 [5] | Ki [5] | IC50 [6] | Ki [6]

NYSTATIN
Not Active: IC50 [1] | Ki [1] | IC50 [2] | Ki [2] | IC50 [3] | Ki [3] | IC50 [4] | Ki [4] | IC50 [5] | Ki [5] | IC50 [6] | Ki [6]
